From patent US20120190703A1, “SALTS OF 13A-(S)DESOXYTYLOPHORININE, PREPARATION METHODS AND PHARMACEUTICAL COMPOSITIONS AND USES THEREOF” (priority 2009, published 2012)
“And” between values parts separate entries of the source, which are not always exact repeats. Equal values may be shown once. Read-outs that look alike come from different tables or passages of the source. Marks after values point to notes of the source that are not given here.

Columns and labels:
Solubility in water = format: physicochemical
[1] = Drug distribution in brain tissue after oral administration in mice; format: in vivo, ICR mice; details: for Brain contents of (+)-13a-(S)-deoxytylophorinine (ng/ml), Mean ± SD / Brain contents of (+)-13a-(S)-deoxytylophorinine (ng/ml), individual animals 1-3: 6 mg/kg oral
Method: (§1) Male ICR mice. Body weight 18˜22 g.
Plasma was isolated by centrifugalization. […] 25% tissue homogenate was prepared with normal saline addition.
The drug concentration-time data in brain tissue after administered orally of (+)-13a-(S)-deoxytylophorinine tartrate, maleate and citrate were represented in Table 8˜10 and FIG. 6˜8. […] (+)-13a-(S)-deoxytylophorinine could be detected in 5 min. The peak concentration was reached after 15 min, and the compound still can be detected after 2 h after administration.

[2] = Plasma pharmacokinetics after oral administration in mice
Method: To determine the pharmacokinetic characters of 13a-(S)-deoxytylophorinine and its salts, the studies about plasma pharmacokinetics and the character of distribution in brain were pursued.
as §1
(+)-13a-(S)-deoxytylophorinine Tartrate, (+)-13a-(S)-deoxytylophorinine Maleate, (+)-13a-(S)-deoxytylophorinine Citrate. All were dissolved in distilled water as 0.6 mg/ml solution before experiment progressed.
72 mice were divided to 3 groups with 24 animals per group, fasting for 16 h and drinking water freely. […] Plasma was isolated by centrifugalization. After the salts were administered orally, the brain tissues of mice were collected at 5 min, 15 min, 2 h time points. 25% tissue homogenate was prepared with normal saline addition. 200 μL of homogenate and plasma were added isovolumic MeCN to precipitate protein. 5 μL of clear supernatant was analyzed by LC/MS/MS.
(+)-13a-(S)-deoxytylophorinine was dissolved in DMSO and then diluted with MeOH with concentration 10, 50, 100, 500, 1000 and 2500 ng/ml respectively. 10 μl of standard solutions of (+)-13a-(S)-deoxytylophorinine with different concentration above were added to 200 μl of blank plasma sequently to adjust the concentration to 0.5, 2.5, 5, 25, 50, 125 ng/ml respectively. MeCN was added to the solution to precipitate protein, and 5 μl of result clear supernatant was analyzed with LC/MS/MS. Linear regression was ran with the peak area of (+)-13a-(S)-deoxytylophorinine as ordinate and the concentrations as abscissa.

H22 tumor-bearing mice = details: intragastric once daily
Text: To determine the pharmacodynamic characters of 13a-(S)-deoxytylophorinine and its salts, the impact of these compounds to the tumor growth in H22 tumor-bearing mice was surveyed.
Male Kunming mice were obtained from the Laboratory Animal Center, Academy of Military Medical Science. Body weight 18˜22 g. 6 animals per group, totally 10 groups, 60 animals.
(+)-13a-(S)-deoxytylophorinine, (+)-13a-(S)-deoxytylophorinine Tartrate, (+)-13a-(S)-deoxytylophorinine Maleate, (+)-13a-(S)-deoxytylophorinine Citrate, Cytoxane (CTX) as positive control.
(+)-13a-(S)-deoxytylophorinine was administered at high dose (5 mg/kg) and low dose (2.5 mg/kg). Three (+)-13a-(S)-deoxytylophorinine salts were administered at high dose and low dose as equal moles with their prototype (Tartrate: 7.05 mg/kg, 3.53 mg/kg; Malate: 6.60 mg/kg, 3.30 mg/kg; Citrate: 7.90 mg/kg, 3.95 mg/kg).
Animals were reared in SPF grade circumstance to be observed for 24 h. The tumor cells liquid which resuscitated in abdominal cavity of KM mice was diluted with aseptic normal saline at 1:3 ratio. The resulting liquid was inoculated subcutaneously at forelimb with 0.2 mL every animal. After the injection over, the animals were divided to […] with 6 animals per group.
Four experimental samples were intragastric administered once daily 24 h after inoculation. The positive control CTX was intraperitoneal injected once daily. The animal body weight was recorded every day.

[3] = 6 mg/kg oral, mice, Time (min) 3
[4] = 6 mg/kg oral, mice, Time (min) 6
[5] = male, ICR, mouse, plasma, po, 6 mg/kg
[6] = high dose × 7 d, equal moles: prototype 5.0, tartrate 7.05, maleate 6.60, citrate 7.90 mg/kg
[7] = low dose × 7 d, equal moles: prototype 2.5, tartrate 3.53, maleate 3.30, citrate 3.95 mg/kg

COc1ccc2c3c(c4cc(OC)c(OC)cc4c2c1)CN1CCC[C@H]1C3.O=C(O)C(O)C(O)C(=O)O [Tartrate, (+)-13a-(S)-deoxytylophorinine Tartrate]
Solubility in water (words) (Solubility in water): soluble in water | solubility (Solubility in water; water): 39 mg/mL | Brain contents of (+)-13a-(S)-deoxytylophorinine (ng/ml), Mean ± SD ([1]; Time (min) 5): 48.0 ± 21.6 ng/mL | Brain contents of (+)-13a-(S)-deoxytylophorinine (ng/ml), individual animals 1-3 ([1]; Time (min) 5): 32.4 ng/mL and 38.8 ng/mL and 72.7 ng/mL | Brain contents of (+)-13a-(S)-deoxytylophorinine (ng/ml), Mean ± SD ([1]; Time (min) 15): 262.9 ± 11.9 ng/mL | Brain contents of (+)-13a-(S)-deoxytylophorinine (ng/ml), individual animals 1-3 ([1]; Time (min) 15): 249.3 ng/mL and 271.0 ng/mL and 268.5 ng/mL | Brain contents of (+)-13a-(S)-deoxytylophorinine (ng/ml), Mean ± SD ([1]; Time (min) 120): 45.7 ± 33.0 ng/mL | Brain contents of (+)-13a-(S)-deoxytylophorinine (ng/ml), individual animals 1-3 ([1]; Time (min) 120): 24.7 ng/mL and 28.7 ng/mL and 83.7 ng/mL | Drug contents in brain compared with prototype ([1]; oral, 3 time points): higher than their prototype | Peak concentration in blood ([2]; 6 mg/kg oral, mice): 34.2 ± 3.1 ng/mL | Time of peak concentration in blood ([2]; 6 mg/kg oral, mice): 15 min | t½z ([2]; 6 mg/kg oral, mice, plasma, non-compartment model): 0.88 h | Blood concentration of (+)-13a-(S)-deoxytylophorinine (ng/ml), individual animals 1-3 ([2]; 6 mg/kg oral, mice, Time (min) 0.08): 18.4 ng/mL and 11.7 ng/mL and 42.0 ng/mL | Blood concentration of (+)-13a-(S)-deoxytylophorinine (ng/ml), individual animals 1-3 ([2]; 6 mg/kg oral, mice, Time (min) 0.25): 30.6 ng/mL and 36.1 ng/mL and 35.7 ng/mL | Blood concentration of (+)-13a-(S)-deoxytylophorinine (ng/ml), individual animals 1-3 ([2]; 6 mg/kg oral, mice, Time (min) 0.5): 16.5 ng/mL and 9.0 ng/mL and 7.8 ng/mL | Blood concentration of (+)-13a-(S)-deoxytylophorinine (ng/ml), individual animals 1-3 ([2]; 6 mg/kg oral, mice, Time (min) 1): 6.2 ng/mL and 10.0 ng/mL | Blood concentration of (+)-13a-(S)-deoxytylophorinine (ng/ml), individual animals 1-3 ([2]; 6 mg/kg oral, mice, Time (min) 2): 2.5 ng/mL and 12.4 ng/mL and 8.7 ng/mL | Blood concentration of (+)-13a-(S)-deoxytylophorinine (ng/ml), Mean ± SD [2, 3]: 4.5 ± 1.2 ng/mL | Blood concentration of (+)-13a-(S)-deoxytylophorinine (ng/ml), individual animals 1-3 [2, 3]: 3.0 ng/mL and 5.0 ng/mL and 5.3 ng/mL | Blood concentration of (+)-13a-(S)-deoxytylophorinine (ng/ml), individual animals 1-3 ([2]; 6 mg/kg oral, mice, Time (min) 4): 3.3 ng/mL and 4.2 ng/mL and 1.1 ng/mL | Blood concentration of (+)-13a-(S)-deoxytylophorinine (ng/ml), Mean ± SD [2, 4]: 0.4 ± 0.4 ng/mL | Blood concentration of (+)-13a-(S)-deoxytylophorinine (ng/ml), individual animals 1-3 [2, 4]: 0.0 ng/mL and 0.2 ng/mL and 0.8 ng/mL | concentration at 5 min ([2]; male, ICR, mouse, plasma, oral, 6 mg/kg, Blood concentration of (+)-13a-(S)-deoxytylophorinine (ng/ml), Mean ± SD, 6 mg/kg oral, mice, Time (min) 0.08): 24 ± 15.9 ng/mL | concentration at 15 min ([2]; male, ICR, mouse, plasma, oral, 6 mg/kg, Blood concentration of (+)-13a-(S)-deoxytylophorinine (ng/ml), Mean ± SD, 6 mg/kg oral, mice, Time (min) 0.25): 34.2 ± 3.1 ng/mL | concentration at 0.5 h ([2]; male, ICR, mouse, plasma, oral, 6 mg/kg, Blood concentration of (+)-13a-(S)-deoxytylophorinine (ng/ml), Mean ± SD, 6 mg/kg oral, mice, Time (min) 0.5): 11.1 ± 4.7 ng/mL | concentration at 1 h ([2]; male, ICR, mouse, plasma, oral, 6 mg/kg, Blood concentration of (+)-13a-(S)-deoxytylophorinine (ng/ml), Mean ± SD, 6 mg/kg oral, mice, Time (min) 1): 8.1 ± 2.7 ng/mL | concentration at 2 h ([2]; male, ICR, mouse, plasma, oral, 6 mg/kg, Blood concentration of (+)-13a-(S)-deoxytylophorinine (ng/ml), Mean ± SD, 6 mg/kg oral, mice, Time (min) 2): 7.9 ± 5 ng/mL | concentration at 4 h ([2]; male, ICR, mouse, plasma, oral, 6 mg/kg, Blood concentration of (+)-13a-(S)-deoxytylophorinine (ng/ml), Mean ± SD, 6 mg/kg oral, mice, Time (min) 4): 2.8 ± 1.6 ng/mL | AUC(0-inf) [2, 5]: 0.0379 µg·h/mL | AUC(0-t) [2, 5]: 0.0374 µg·h/mL | Cmax [2, 5]: 34.2 ng/mL | MRT inf [2, 5]: 1.63 h | MRT last [2, 5]: 1.57 h | Tmax [2, 5]: 0.25 h | Animal No. (Initial/Final) (H22 tumor-bearing mice; [6]): 6/6 | Body Weight(g) Final (H22 tumor-bearing mice; [6]): 13.55 ± 1.87 g | Body Weight(g) Initial (H22 tumor-bearing mice; [6]): 22.00 ± 1.55 g⁻¹ | Inhibition (%) (H22 tumor-bearing mice; [6]): 80.35** % | Tumor Weight (g, mean ± SD) (H22 tumor-bearing mice; [6]): 0.23 ± 0.15 g | Animal No. (Initial/Final) (H22 tumor-bearing mice; [7]): 6/6 | Body Weight(g) Final (H22 tumor-bearing mice; [7]): 19.76 ± 2.34 g | Body Weight(g) Initial (H22 tumor-bearing mice; [7]): 21.50 ± 0.84 g⁻¹ | Inhibition (%) (H22 tumor-bearing mice; [7]): 31.88% | Tumor Weight (g, mean ± SD) (H22 tumor-bearing mice; [7]): 0.78 ± 0.48 g
